Literature values in patent US20230321005A1, “PHYTONADIONE COMPOSITIONS” (CIPLA LIMITED, priority 2020, published 2023).

Key:
[1] = forms multiple peroxide and epoxy impurities

CC1=C(C/C=C(\C)CCC[C@H](C)CCC[C@H](C)CCCC(C)C)C(=O)c2ccccc2C1=O [Phytonadione, 2 - methyl - 3 - phytyl - 1, 4 - naphthoquinone]
Susceptibility to oxidative and photolytic degradation [1]: highly susceptible
Solubility in aqueous solvents: insoluble
